Measurements taken from a melting point compilation (Tetko et al.; mined from patent text by program, amines drawn as free bases though some values may be those of a salt).

Structure (SMILES)	melting point [°C]
CCCCCCCCCCC[C@H](CC(=O)N[C@H](CO)C(=O)OCc1ccccc1)OC(=O)CCCCCCCCC	51 to 52
CCN1C(=O)C(C)(C)C(=O)N(C)c2cc(CCN(CCn3cc(C)c4occc4c3=O)Cc3cc(C)nn3C)ccc21	171 to 173
COc1ccc(-c2ncc3n2CNc2ccccc2-3)cc1	190 to 191
CC(=O)NC1C(O[Si](C)(C)C(C)(C)C)C=C(C(=O)O)OC1C(OCC(=O)O)C1COC(C)(C)O1 (stereo not drawn)	130
COC(=O)C(C(=O)OC)c1cc(F)cc2c1C(=O)c1cc3ccccc3cc1C2=O	225 to 230
CCCCCCCCCCCCCCCCCCSC(C)(C)C(=O)CC(=O)Nc1ccccc1OC	59 to 61
CC(C)Sc1c(C(=O)O)oc(Br)c1Br	130 to 131
COc1ccccc1N(C)[C@@H](C)[C@H](O)c1ccccc1	84 to 86
COC(=O)c1sccc1-c1cc2c(cc1C)C(C)(C)CCC2(C)C	89 to 90
CCCOc1cc(F)cc2c1c(CCN(C)C)cn2CC	68.9 to 70.1
COC(=O)Cn1nnc(NC(=O)C(c2ccccc2)c2ccccc2)n1	168 to 169
O=C1OC(CCc2ccccc2)(c2ccccc2)CC(O)=C1SCc1cccc2ccccc12 (stereo not drawn)	132 to 134
O=c1cccc(C(F)F)[nH]1	125 to 127
CCc1noc(-c2cn(-c3cc(OC)ccc3Cl)cn2)n1	67 to 69
O=[N+]([O-])c1ccc(OCCN2CCC(Cc3ccccc3)CC2)cc1O	136 to 137
CCNC(=O)NC1CCCc2ccccc21 (stereo not drawn)	178 to 179
Cc1cc(-c2cn[nH]c2N)ccn1	230
O=C(Nc1cc2ncc(CN3CCCC3)cc2cc1F)c1ccc(-c2ccc(Cl)cc2)cc1F	217 to 219
Cc1nc(C(C)O)c[nH]1 (stereo not drawn)	107 to 111
OCc1cc(N(c2ccccc2)c2ccccc2)c(CO)cc1N(c1ccccc1)c1ccccc1	208 to 210
CCCCNC(=O)[C@@H](C[C@H](O)[C@H](CC1CCCCC1)NC(=O)[C@H](Cc1cscn1)NC(=O)[C@@H](CC(=O)N1CCOCC1)Cc1ccccc1)C(C)C	161 to 163
CN1C(=O)[C@H](NC(=O)/C=C/c2ccc(I)cc2)N=C(c2ccccc2)c2ccccc21	137 to 140
Cc1cn(-c2cc(C)c3[nH]c(=O)ccc3c2)c(C)n1	322 to 325

Structure (SMILES)	melting point [°C]
CCOC(=O)c1c(O)c2cc(OCc3ccccc3)ccc2c(=O)n1CC(C)C	92 to 93
O=C1[C@H](CC[C@H](O)c2ccc(F)cc2)[C@@H](c2ccc(Br)cc2OCc2ccccc2)N1c1ccccc1	114
COc1ccc2c(Oc3ccc(OCCN4CCCCC4)cc3)c(-c3cccc(O)c3)ccc2c1	170 to 171
CC(=O)SCCC(=O)N1c2cc(C)ccc2CCC1C(=O)O (stereo not drawn)	119 to 122
CCOC(=O)c1cnoc1-c1ccc(Cl)c(Br)c1	109 to 110
CS(=O)(=O)Nc1nc2nc(NC3CCOCC3)ncc2cc1Oc1ccc(F)cc1F	199 to 204
COc1nc(C)cc(C)c1C(=O)O	210 to 215
CC1(C)Oc2ccsc2C(N2CCCC2)C1O (stereo not drawn)	85 to 89
O=C1CCCC2=C1C(c1ccc(F)cc1O)C1=C(CCS1)N2 (stereo not drawn)	> 250
Cc1cc(C)n2nc(OC(=S)N(C)C)cc2n1	216 to 217
COc1ccc(Cn2c(C)cc3cnnc(Cl)c32)cc1	126 to 128
O=C(Cc1ccnc(Cl)n1)c1ccc(F)cc1	112 to 113
CCOC(=O)NC(CCSC)C(N)=O (racemic)	110 to 112
CN1C(=O)C(=NO)C(=NCCCCCC(=O)O)N(C)C1=O	246 to 248
C=Cc1cc(C)cc(C)c1CC(=O)N(C)C1(C#N)CCN(OC)CC1	148 to 151
Cc1ccc(C(=O)c2c(C)cc(CC(=O)O)n2C)cc1	160 to 161
Oc1ccc(-c2c[nH]c(-c3cccnc3)n2)cc1	315 to 318
CCCCc1c2ccccc2cc2ccccc12	49
Cc1nc2c3c(ccn2c1C)C(=O)CC(c1ccsc1)N3 (stereo not drawn)	176 to 177
CCOC(=O)c1cn(C2CC2)c2c(C)c(N3CCN(C)CC3)c(F)c(Cl)c2c1=O	175 to 177
CCCC(=O)c1cccc(NC(=O)C=C(C)OC)c1	81
CNC(=O)NC1CCC(=O)c2sccc21 (stereo not drawn)	212 to 215
O=S1(=O)Cc2ccc(F)cc2C(c2ccc(F)cc2)=NN1	196 to 200

Further lines, results first:

melting point [°C]	Structure (SMILES)
159 to 160	CC(C)C=CC1(C(F)(F)F)OCC(=O)Nc2ccc(F)c(F)c21 (stereo not drawn)
87.2 to 88	Cc1c(N)c([N+](=O)[O-])cc(F)c1F
123 to 125	C=CCON1C(=O)c2ccc(Cl)c3c(N4CC[C@H](NC(=O)OC(C)(C)C)C4)cc(Cl)c(c23)C1=O
57 to 58	CCC(=O)c1cc2c(cc1O)CCCC2
95 to 97	CCOc1ccc(C=CC(C)=O)cc1OC
146 to 147	COc1ccc(-c2coc3ccc(-c4nnc(SCc5cccc(F)c5)o4)cc23)cc1
205 to 208	COc1cc(Br)c(OC(=O)c2ccc(OC)c(C(F)(F)F)c2)c(NC(=O)c2ccc(OC)c(C(F)(F)F)c2)c1
140	CC(=O)OC1CSC(Oc2cccc(-c3cnn(C)c3)c2)C(OC(C)=O)C1OC(C)=O (stereo not drawn)
> 200	FC(F)(F)c1cccc(-c2snnc2S)c1
91 to 93	CCCOC(=O)c1cc(=O)c(Sc2ccc(OC)cc2)co1
239 to 240	CC(=O)NCC1CN(c2ccc(N3CCN(c4nc5ccccc5s4)CC3)c(F)c2)C(=O)O1 (stereo not drawn)
164 to 166	CC(C)c1cccc(C(C)C)c1NC(=O)CO
247 to 248	CC(CS)C(=O)Nc1cc(C(=O)O)ccn1 (stereo not drawn)
56 to 58	Cc1cccc(OC2=NS(=O)(=O)N=C(N)N2C(C)C)c1
292 to 293	O=C1Nc2ccc(C(F)(F)F)cc2C1c1ncnc2nn(C3CCCC3)cc12 (stereo not drawn)
203 to 205	Cc1nc2c(N)nc3cc(-c4ccccc4)ccc3c2n1CCCS(C)(=O)=O
157	O=C(NC1Cc2cccc(-c3ccc(F)cc3)c2C1)c1ccc(F)cc1 (stereo not drawn)
> 200	CN(C)CCCOc1ccc(C[C@H](NC(=O)[C@@H]2CCCN2S(=O)(=O)c2cc(Cl)sc2Cl)C(=O)O)cc1
218	Cc1cc(=O)c(-c2ccccc2)c(-c2ccc(S(N)(=O)=O)cc2)o1

melting point [°C]	Structure (SMILES)
131 to 132	N#CCCCCCC(=NOCCNC(c1ccccc1)(c1ccccc1)c1ccccc1)c1ccc(Cl)c(Cl)c1
88 to 90	CCN1C(=O)c2ccc(C)cc2Oc2ncccc21
100	O=C(CCl)NCC(CNC(=O)CCl)OC1CCCCO1 (stereo not drawn)
170 to 173	COc1ccc2c(c1)c1c3c(c(-c4ccccc4)cc1n2CCCCCCO)C(=O)NC3=O
219 to 220	CC(C)n1nc(-c2c(-c3ccccc3)nn3ccc(N4CCN(S(C)(=O)=O)CC4)cc23)ccc1=O
154	COc1ccc(Br)c(C(=O)N2CCN(S(=O)(=O)c3c(F)cccc3F)CC2)c1
141	CCOC(=O)c1c(C=O)c2c(Cl)cc(Cl)cc2n1C(=O)OC(C)(C)C
273 to 274	CCCn1c(=O)c2[nH]c(/C=C/c3ccc(OC)cc3OC)nc2n(CCC)c1=O
53 to 54	Cc1nnc(Sc2c(C)cccc2C)o1
71 to 72	O=[N+]([O-])c1cccc(CN(CCO)CCO)c1
110 to 111	CCN1CCNC1=C[N+](=O)[O-]
195 to 196	CCCn1c2cc(OC)ccc2c2oc(C(=O)Cl)cc21
182 to 185	O=C(c1ccc([N+](=O)[O-])cc1)c1ccc2c(n1)C(O)CCCN2 (stereo not drawn)
94.5 to 97	CC(C(=O)O)c1ccc(-c2ccccc2F)cc1 (stereo not drawn)
121 to 123	N#CCSc1nnc2ccccn12
180 to 182	COc1cc2sc(C(N)=O)cc2c(Cl)c1OC
113 to 114	CC(C)(C)OC(=O)NC1Cc2ccccc2C1Oc1ccccc1Cc1ccccc1 (stereo not drawn)
116 to 118	CSCCC(=O)N(C)c1cnc(-c2cccnc2)s1
69 to 70	C[Si](C)(C)N=C(C(=N[Si](C)(C)C)c1ccccc1)c1ccccc1

melting point [°C]	Structure (SMILES)
205	COc1cc(F)c(N2CCCC2=O)c(S(N)(=O)=O)c1
117 to 118	CSc1cc2cc(C)ccc2cc1C=O
180 to 181	CC1(CN2CCN(Cc3ccccc3)C2=O)Cn2cc([N+](=O)[O-])nc2O1 (stereo not drawn)
300 to 302	Cc1cc(C(=N)NO)ccc1-c1ccc(-c2nc3cc(C(=N)NO)ccc3[nH]2)cc1
221 to 222	Cc1cc(=O)c(OCc2ccccc2)c(C(=O)NC2CCC2)n1C
85	C#CCOc1ccc(CCNC(=O)C(O)Cc2ccc(C)cc2)cc1OC (stereo not drawn)
165 to 168	COCCNc1nc(-n2ccnc2)nc2ccc(CO)cc12
48	CC(c1ccc(C(F)(F)F)cc1[N+](=O)[O-])[N+](=O)[O-] (stereo not drawn)
196 to 197	CN(C(=O)c1cccc2ccccc12)[C@H](Cc1ccc(C(F)(F)F)cc1)[C@@H](O)c1ccc(F)cc1 (racemic)
80	CC(=O)CC(=O)Nc1cccc(OCc2ccccc2)c1
177	NNC(=O)c1nc(CS(=O)(=O)c2ccc(Cl)cc2)no1
152	CC(C)(C)OC(=O)CCc1ccnc(-c2nc(=O)c3ccc(Cl)cc3s2)c1
153 to 156	O=C1NCCC[C@@H]1NS(=O)(=O)c1ccc(F)cc1
107 to 108	O=C(NC1CCOCC1)c1cccc(-c2cccc3oc(Cc4cccc(C(F)(F)F)c4)cc23)c1
318 to 320	O=c1[nH]c2ncc(-c3ccc(O)cc3)nc2n1C1CCCCC1
131 to 132	CCCCP(=CC#N)(CCCC)CCCC
41 to 43	CCCCCCOc1c(Br)ccc2c(OCCCCCC)c(Br)ccc12
155	COC/C(=N/O)c1ccc(Sc2cc(F)cc(C3(OC)CCOCC3)c2)cc1
214 to 216	COc1cccc(OCCCNC(=O)OC(C)(C)C)c1-c1cc(Nc2cnc(C#N)cn2)n[nH]1
